Measurements from patent US9663764B2, “Generation of cardiomyocytes from human pluripotent stem cells” (Wisconsin Alumni Research Foundation, priority 2011, dated 2017).

Legend:
Format in all cases: cell-based, human
[1] = tested on: 19-9-11 iPSCs; experiment: Cardiac directed differentiation via small molecules on Matrigel, cTnT/MF20 flow cytometry; conditions: 12 μM CH treatment alone, after 15 days
Procedure: (§1) cardiac directed differentiation via small molecules: Cells were dissociated and plated as described in the Activin/BMP4 protocol. When hPS cells maintained on Matrigel® or Synthemax plates achieved confluence, cells were treated with CH in RPMI/B27-insulin for 24 hr (day 0 to day 1). The medium was changed to RPMI/B27-insulin, followed by 2 μg/ml dox treatment at different times between day 1 and day 5 for transgenic cell lines. For genetically unmodified lines, 5 μM IWP2 (Tocris) or IWP4 (Stemgent) was added at day 3 and removed during the day 5 medium change. Cells were maintained in the RPMI/B27 starting from day 7, with the medium changed every 3 days.
(§2) Flow Cytometry: Cells were dissociated into single cells and then fixed with 1% paraformaldehyde for 20 min at room temperature and stained with primary and secondary antibodies in PBS plus 0.1% Triton X-100 and 0.5% BSA. For the cell proliferation assay, a 17-hour pulse of BrdU was performed to identify dividing cardiomyocytes (Zhang et al., Circ. Res. 104, e30-41 (2009)). Data were collected on a FACSCaliber flow cytometer (Beckton Dickinson) and analyzed using FlowJo.
While shRNA inhibition of β-catenin provides specific and facile temporal regulation of canonical Wnt signaling, this method requires genetic modification of the hPS cell line which limits its potential clinical utility. The inventors next used the mechanistic insight these modified lines provided regarding the sufficiency of canonical Wnt signaling in cardiomyogenesis to develop a completely defined, growth factor free method of efficiently generating cardiomyocytes from unmodified hPS cell lines using small molecules. First, 19-9-11 iPSCs were maintained in mTeSR1 on Matrigel® for five days, and then the medium was switched to RPMI/B27-insulin containing 12 μM CH. IWP4 and IWP2, which prevent palmitylation of Wnt proteins by porcupine thereby blocking Wnt protein secretion and activity (Chen et al., Nat. Chem. Biol. 5:100-107 (2009)), were used to inhibit Wnt signaling. […] Similar to results obtained with the 19-9-11 ishcat-1 cell line, CH treatment of 19-9-11 cells alone only generated 16% cTNT+ or MF20+ cells after 15 days, while adding 5 μM IWP4 or IWP2 at day 3 increased this to 87% cTNT+ or MF20+ cells. […] In order to achieve fully defined culture conditions, Matrigel® was replaced with a defined peptide acrylate surface (Synthemax) during both hPS cell expansion and differentiation. […] Thus, optimization of canonical WNT signaling via stage-specific addition of small molecule agonists and antagonists produces high yields of functional cardiomyocytes in a completely defined, growth factor free culture system.

[2] = tested on: TCF/LEF promoter activity in H9-7TGP cells; experiment: 7TGP TCF/LEF promoter-reporter (GFP) assay after CH treatment
Description: In order to probe the activation of canonical Wnt/β-catenin signaling during hPS cell specification to cardiomyocytes, the inventors generated a series of promoter-reporter cell lines in H1 and H9 hESC, and 19-9-11 human iPSC lines. These reporter lines, integrated with a lentiviral 7TGP vector, express GFP under control of a consensus TCF/LEF binding sequence promoter which reports β-catenin activation (FIG. 2A) (Fuerer and Nusse, PLoS One 5:e9370 (2010)). […] Approximately 50% of H9-7TGP cells expressed GFP at 4 days post-addition of 15 μM CH.

[3] = tested on: H9 hESCs; experiment: Activin A/BMP4 directed cardiac differentiation with GSK3 inhibitor pretreatment, cTnT flow cytometry; conditions: GSK3 inhibitor (1 μM) 3 days prior to Activin A and BMP4; day 15; average
Procedure: Cardiac directed differentiation using Activin A and BMP4: hPS cells maintained on Matrigel® in mTeSR1 were dissociated into single cells with Accutase (Invitrogen) at 37° C. for 5 min and then seeded onto a Matrigel®-coated cell culture dish at 100,000 cell/cm^2 in mTeSR1 supplemented with 5 μM ROCK inhibitor (Y-27632, Stemgent) (day −5). Cells were cultured in mTeSR1, changed daily. At day 0, cells were treated with 100 ng/ml Activin A (R&D) in RPMI/B27-insulin. After 24 hr, the medium was changed to RPMI/B27-insulin supplemented with 5 ng/ml BMP4 (R&D) for another 4 days. At day 5, the medium was changed with RPMI/B27-insulin. At day 7 the cells were transferred to RPMI/B27, and medim changed every 3 days. When using GSK3 inhibitors to stimulate differentiation, cells were cultured in mTeSR1 containing BIO or CHIR99021 from day −3 to day 0.
as §2
Undifferentiated H9 hESCs were cultured in the presence of 0-8 μM CH for three days prior to EB formation. EBs were cultured in suspension for 4 days before transferring to 0.1% gelatin coated plates. […] The inventors also applied the GSK3 inhibitors CH and BIO to undifferentiated H9 hESCs three days prior to directed differentiation to cardiomyocytes via Activin A and BMP4.

[4] = tested on: 19-9-11 and IMR90C4 iPSCs; experiment: Cardiac directed differentiation via small molecules on Synthemax plates, cTnT/MF20 flow cytometry; conditions: 12 μM CH at day 0 and 5 μM IWP4 at day 3, day 15
Procedure: as §1, §2
While shRNA inhibition of β-catenin provides specific and facile temporal regulation of canonical Wnt signaling, this method requires genetic modification of the hPS cell line which limits its potential clinical utility. […]

[5] = tested on: H9 hESCs; experiment: Cardiac differentiation via EBs after CH pretreatment, contracting outgrowths; conditions: 0-8 μM CH for three days prior to EB formation; spontaneously-contracting outgrowths
Procedure: Cardiac Differentiation Via EBs: hPS cells were passaged onto MEFs (˜13,000 cells/cm^2) and cultured in hESC medium for 2 days followed by another 3 days in hESC medium supplemented with BIO (Sigma) or CHIR99021 (Selleck). To form EBs, hPS cell aggregates generated by […] were cultured in low-attachment plates overnight in RPMI plus 20% KnockOut serum replacer. The next day, the EBs were cultured in EB20 (RPMI plus 20% FBS) for 4 days in suspension. EBs were then plated onto 0.1% gelatin-coated 6-well culture plates at 50-100 EBs/well, and cultured in EB20 medium. After 10 days of differentiation, the FBS concentration was reduced to 2% EB2 (RPMI plus 2% FBS). The number of contracting EBs was visually assessed using a microscope with a 37° C. heated stage. […] Undifferentiated H9 hESCs were cultured in the presence of 0-8 μM CH for three days prior to EB formation. EBs were cultured in suspension for 4 days before transferring to 0.1% gelatin coated plates. […] The inventors also applied the GSK3 inhibitors CH and BIO to undifferentiated H9 hESCs three days prior to directed differentiation to cardiomyocytes via Activin A and BMP4.

Cc1c[nH]c(-c2cnc(NCCNc3ccc(C#N)cn3)nc2-c2ccc(Cl)cc2Cl)n1 [CH]
cTNT+ or MF20+ cells [1]: 16%
H9-7TGP cells expressing GFP ([2]; 15 μM CH, 4 days post-addition): Approximately 50%
TCF/LEF promoter activity ([2]; H9-7TGP reporter line, CH in mTeSR1 for 4 days): activated TCF/LEF promoter activity in a CH concentration-dependent manner
cTNT-labeled cells [3]: 50%
cTNT+ or MF20+ cells [4]: approximately 85%
CH concentration at which efficiency of cardiomyocyte differentiation peaked [5]: 2 to 4 µM
